What follows are compounds tested on human foreskin fibroblasts (HFF) (assay: In vitro HFF proliferation assay (Incucyte confluency)). Conditions: 200 µM compound, DMEM with 16.8 µM pantothenate, 96 h; mean ± range/2 of two experiments.
Assay type: cell-based
Method: HFF cells were maintained in vitro in DMEM supplemented with 10% (vol/vol) newborn calf serum, 50 units/mL penicillin, 50 µg/mL streptomycin, 10 µg/mL gentamicin, 0.2 mM L-glutamine, and 0.25 µg/mL amphotericin B, as previously described ([99]). HepG2 cells were maintained in RPMI-1640 medium (Thermo Fisher Scientific, catalogue number 72400120) supplemented with 10% (vol/vol) fetal bovine serum, 50 units/mL penicillin, and 50 µg/mL streptomycin.
In vitro HFF proliferation assays were performed as previously described by Howieson et al. ([32]), with modifications. Confluent HFF cells (in a 75 cm^2 flask) were harvested by treatment with 1 × trypsin–EDTA (0.25% [wt/vol] trypsin +0.2 g/L EDTA) and diluted in 21 mL of DMEM supplemented with 10% [vol/vol] newborn calf serum ([32]). Assays were set up in 96-well microtiter plates in a similar way to that described for the antiplasmodial activity assay. Cycloheximide (10 µM) was used as a non-proliferation control, and 0.1% (vol/vol) DMSO served as a 100% proliferation control. The plates were incubated at 37°C in a CO2 incubator for 96 h, and the Incucyte Live-Cell Analysis System (Essen BioScience) was used to capture cellular changes and assess cell growth in each well over time. Each well was scanned to capture bright field images, and confluency was assessed at the end of the 96 h incubation, which was then used to evaluate the effect of each compound on the proliferation of HFF cells by comparing it to the 100% proliferation control. The bottom of the curve was constrained to 0 when fitting for HFF proliferation assays using GraphPad Prism.

| SMILES | Proliferation (%) of HFF with 200 µM Cpd and 16.8 µM Pan [%] |
| --- | --- |
| CC(C)(CO)[C@@H](O)C(=O)NCc1csc(-c2ccccc2)n1 [Compound 2e] | 100 ± 1 |
| CC(C)(CO)[C@@H](O)C(=O)NCc1nc(CCc2ccccc2)cs1 [Compound 1e] | 101 ± 2 |
| CCCCCc1csc(CNC(=O)[C@H](O)C(C)(C)CO)n1 [Compound 1c] | 97 ± 4 |
| CC(C)(CO)[C@@H](O)C(=O)NCc1cnc(-c2ccccc2)s1 [Compound 3f] | 100 ± 1 |
| CC(C)(CO)[C@@H](O)C(=O)NCc1csc(Cc2ccccc2)n1 [Compound 2c] | 101 ± 2 |
| CCCCc1csc(CNC(=O)[C@H](O)C(C)(C)CO)n1 [Compound 1a] | 100 ± 1 |

What follows are compounds tested on PfPanK (assay: [14C]pantothenate phosphorylation assay in P. falciparum lysates (Somogyi reagent)). Conditions: PfPanK versus HsPanK3 selectivity.
Assay type: biochemical
Method: Parasite lysates were prepared from saponin-isolated mature trophozoite-stage parasites as described by Saliba et al. ([14]), with modifications. Briefly, a culture with predominantly trophozoite stage parasites was thoroughly mixed with saponin (0.05% [wt/vol] final concentration) and centrifuged at 2,000 × g for 8 min at 4°C. The pelleted parasites were then transferred to a 1.5 mL tube and washed three times (16,000 × g, 1 min each time) with cold malaria saline (125 mM NaCl, 5 mM KCl, 25 mM HEPES, 20 mM glucose, 1 mM MgCl2, pH 7.1). Subsequently, washed saponin-isolated parasites were suspended in 1 mL of 10 mM Tris/Cl, pH 7.4, followed by trituration (10 times) through a SafetyGlide injection needle (25-gauge). The lysates were then centrifuged at 16,000 × g for 30 min at 4°C, and the supernatant was transferred to a new tube. The concentration of the lysates was then determined using the Bradford reagent.
Phosphorylation of [^14C]pantothenate was determined using a combination of zinc sulphate (ZnSO4) and barium hydroxide (Ba(OH)2) (Somogyi reagent) as previously described ([78]). In the 125 min time course, each reaction (650 µL) contained a final concentration of 50 mM Tris-Cl (pH 7.4), 5 mM ATP, 5 mM MgCl2, 2 µM (0.1 µCi/mL) [^14C]pantothenate, and 60 µg of total parasite lysate. The compounds were added at their 10× antiplasmodial IC50 values or at various concentrations to generate dose–response curves. Mixtures were incubated at 37°C throughout the experiment, and reactions were initiated by the addition of the lysates. A reaction with identical components to the test reactions but lacking the parasite lysate was prepared to serve as a no-phosphorylation negative control, and a reaction with DMSO vehicle control (0.2% vol/vol) served as a positive control. At pre-determined time points, 50 µL of the reaction mixture was transferred in triplicate to wells of a 96-well filter plate with 0.2 µm hydrophilic polyvinylidene fluoride (PVDF) membrane filter (Corning), which had been pre-loaded with 50 µL of 150 mM Ba(OH)2. The reaction mixtures were thoroughly mixed with the Ba(OH)2 in the wells to precipitate the enzyme and terminate the phosphorylation reaction. After all reactions had been terminated, phosphorylated compounds in each well were precipitated by the addition of 50 µL of 150 mM ZnSO4 to generate the Somogyi reagent. The plate was then washed twice with deionized H2O and once with 95% (vol/vol) ethanol using a vacuum manifold to remove the non-phosphorylated [^14C]pantothenate and was subsequently dried overnight at 37°C in a non-humidified incubator. The following day, 30 µL of Microscint-O (PerkinElmer) was added to each well, and the plate was sealed on the top and bottom with TopSeal-A Plus sealing film (PerkinElmer). A Packard Microplate Scintillation and Luminescence Counter was used to measure the radioactivity in each well immediately after the plate had been sealed. To determine the total radioactivity in each phosphorylation assay, 50 µL of each reaction mixture was added to the wells of an OptiPlate-96 microplate (PerkinElmer) in triplicate and was then thoroughly mixed with 150 µL of Microscint-40 (PerkinElmer), and the radioactivity was measured in the same manner. Phosphorylation of [^14C]pantothenate, calculated as a percentage of the radioactivity measured in the test wells relative to the total radioactivity in the phosphorylation assay, was then plotted against the reaction time. Each data set was analyzed by linear regression, from which the phosphorylation rate of each reaction was then determined and expressed as a percentage of the phosphorylation rate of the DMSO-positive control reaction.

| SMILES | Fold by which IC50 at inhibiting PfPanK-mediated pantothenate phosphorylation is lower than Km observed for HsPanK3 [fold] |
| --- | --- |
| CC(C)(CO)[C@@H](O)C(=O)NCc1csc(-c2ccccc2)n1 [Compound 2e] | 120 |
